Entries after “also recorded” stand apart in the source; their conditions may differ. Peptide text beside a SMILES is read from it. * marks the point of attachment. AMC = Cc1cc(=O)oc2cc(N*)ccc12; Bz = O=C(c1ccccc1)*
Assays:
[1] = target: T1, thrombin (Homo sapiens, UniProt P00734); test: Detection of thrombin in solution with fluorescent substrates; assay type: biochemical
T1 construct: purchased EVICEL® fibrin sealant kit product code 3905
Method: 1. 2 mL of 0, 10 IU/mL and 100 IU/mL thrombin in saline (none, low, and high thrombin) was prepared in duplicates and tubes were labeled accordingly. Stock of EVICEL® thrombin is about 1000 IU/mL.
2. A defined amount of thrombin substrate was added to thrombin solutions as follows and fluorescence of the mixture was evaluated. The substrate stock solutions were diluted 1:10 in Tris Buffered saline (TBS) buffer (180 uL TBS and 20 uL of stock substrate solution). TBS buffer comprises 20 mM Tris and 150 mM sodium chloride, and is adjusted to pH 7.4. 0.05 mL of the diluted stock solution (1:10 dilution) was added to the 2 mL of thrombin prepared in step 1, mixed at room temperature, and incubated for about 3 mins.
3. Images of tubes were captured while shining with light (using various light emitting sources) and responses were compared for different amounts of thrombin.

[2] = target: T1, thrombin; test: Detection of thrombin in solution, repeated with higher amounts of substrate; assay type: biochemical; set-up: key to fluorescence signal, relative rank: +++: strongest fluorescence signal; ++: signal was greater; +: fluorescence signal was lowest; details: 100 uL at 5 mg/mL in DMSO [500 ug total substrate], 100 IU/mL thrombin, approx. 5 min
Method: 100 IU/mL of thrombin was used.
To 1.0 mL of 100 IU/mL thrombin in saline, 100 uL of Sigma substrate at 5 mg/mL in DMSO was added [500 ug total substrate].
To 1.0 mL of 100 IU/mL thrombin in saline, 100 uL of HTI substrate diluted in TBS at 0.25 mg/mL (50 uL HTI manufacture's stock and 1.5 mL TBS, i.e. 1:30 dilution) was added [25 ug total substrate].
To 1.0 mL of 100 IU/mL thrombin in saline, 10 uL of HTI manufacture's stock (7.5 mg/mL in DMSO) was added [75 ug total substrate]
Images of tubes were captured under various lighting conditions (using various light sources) and responses were compared.
The experiments were carried out at room temperature.

[3] = target: T1, thrombin; test: Detection of thrombin on a surface (cellulose matrix) with fluorogenic substrates; assay type: biochemical; details: approx. 60 min after spraying; 365 nm flashlight only; after moving the matrix out of its original position
Method: 2 mL solutions of 0, 10 IU/mL and 100 IU/mL thrombin in saline (none, and low and high thrombin) were prepared using a stock solution of EVICEL® thrombin of about 1000 IU/mL. 1 mL of each thrombin dilution was sprayed onto white cellulose matrix (paper towel Scott C-Fold) in a designated area.
Immediately a defined amount of thrombin substrate, prepared as follows, was sprayed on the thrombin and coated cellulose matrix and fluorescence of the mixture was evaluated. The substrate stock solutions were diluted 1:10 in TBS (using 900 uL TBS and 100 uL of stock substrate solution). 1.0 mL of the diluted stock solution (1:10 dilution) was sprayed across all three regions of the cellulose matrix coated with thrombin at different levels.
Images of cellulose matrix under various lighting conditions (with various light sources) were captured and the response was compared for different amounts of thrombin and substrates. The Experiments were carried out at room temperature.

[4] = target: T1, thrombin; test: Detection of thrombin generated in plasma with fluorogenic substrates; assay type: biochemical
Method: (§1) Pooled normal plasma (PNP) was purchased from George King Biomedical was thawed at 37 C for 5 min. 0.5 mL of PNP was aliquoted into 3-10×75 mm borosilicate glass tubes. To each to glass tube, 0.10 mL stock fluorescent substrate or 0.10 mL stock TBS was added. Tubes were labeled accordingly.
(§2) 1.0 mL of PT reagent (Diagnostica Stago, STA Neoplastine Cl Plus containing calcium) was dispensed into the three tubes.
Images of tubes were captured while using shining light (using various light sources) and response was compared for different substrates.

[5] = test system: pooled normal plasma; test: Clotting of pooled normal plasma with PT reagent in presence of substrate; assay type: biochemical; details: 0.5 mL PNP + 0.10 mL stock (5 mg/mL in DMSO) + 1.0 mL PT reagent; room temperature
Method: as §1, §2
The blank/TBS control clotted in approx. 10 sec (as expected for a PT clotting time).

[6] = test system: thrombin; test: In vivo detection of thrombin at bleeding site, canine model with liver and spleen abrasions
Method: In this in vivo study, the ability to detect thrombin on a surface in a live animal after creating a bleeding defect was assessed in a canine model with liver and spleen abrasions.
Diffuse/oozing bleeding abrasion defect was created using cautery tip cleaning pad.
0.5 mL of Sigma fluorogenic substrate (Stock solution 5 mg/mL concentration in DMSO protected from light) was sprayed onto bleeding site and visualized with flashlight (356 nm) 2-3 min after application.

[7] = target: T1, thrombin; test: Detection of thrombin activity on chromogenic substrate coated onto cellulose matrix; assay type: biochemical; details: 1 mL of 2 mg/mL substrate sprayed on matrix; EVICEL thrombin applied; 30 sec at room temperature; dihydrochloride
Method: S-2238 chromogenic thrombin substrate ((H-D-Phenylalanyl-L-pipecolyl-L-arginine-p-nitroaniline dihydrochloride) which is available from Chromgenix, Instrumentation Laboratory Company, Bedford, Mass., USA catalog number: 82032439), 25 mg, was dissolved in 12.5 mL of water. The resulting concentration was 2 mg/mL (25 mg in 12.5 mL). 1 mL of 2 mg/mL of the chromogenic substrate was sprayed onto one side of a white cellulose matrix (paper towel Scott C-Fold) approx. 4 in×6 cm in using the EVICEL® ASA tip (product code 3921S). The other side was not coated or sprayed with the substrate.
A kit of EVICEL® (product code 3905) was thawed in a 37° C. water bath for 5 min. […] This was repeated on the substrate coated side and also applied in duplicate on the non-substrate coated side.
As a control, thrombin was applied to the non-coated side of the matrix and no color changed was observed.

[8] = target: T1, thrombin; test: Thrombin activity on chromogenic substrate in solution (dip stick standard tubes); assay type: biochemical; details: 0.2 mL of 2 mg/mL substrate + 1.8 mL water, about 2 min at room temperature
Method: A “dip stick” can be dabbed onto a tissue surface that is suspected of bleeding (FIG. 2). The end of the dip stick can then be placed into a solution containing the visualization agent (chromogenic substrate). The amount of the thrombin present in the dip stick is determined by comparison with a standard curve obtained by running similar tests with known thrombin concentrations.
For example, 0.2 mL of the 2 mg/mL chromogenic substrate was combined with 1.8 mL of water in a […] in 2 borosilicate glass tubes. The solution was gently mixed to distribute the substrate. A third tube was filled with 2 mL of water as an untreated control. To one of the tubes with the diluted substrate, 100 uL of 1000 IU/mL thrombin was added and 10 uL was added to the other tube. After about 2 min at room temperature, a photo was captured of the tubes.
The tube with water is shown as a reference. The intensity of the color change reflected the amount of thrombin.

[9] = target: T1, thrombin; test: Detection of chromogenic substrate product in plasma activated by thromboplastin reagent; assay type: biochemical; details: 0.4 mL PNP + 0.2 mL thromboplastin reagent with calcium + 0.2 mL of 2 mg/mL substrate; room temperature
Method: Plasma has a background color (straw color). To test whether the product of the chromogenic substrate can be detected in plasma, 0.4 mL pooled normal plasma (PNP from George King Biomedical) was activated by a thromboplastin reagent (0.2 mL, Neoplastin CL plus product number 00375) with calcium to allow thrombin generation.
Either 0.2 mL saline (as a control) or 0.2 mL of 2 mg/mL of the chromogenic substrate was added to the tube and mixed on the tube rocker.
Evidence of clot formation was present after approx. 30 sec at room temperature. In view of the presence of fibrinogen in plasma, complete clot formation, i.e. solid/stable clot, occurred at approx. 2 min at room temperature.

| Structure (SMILES) | time within which all of the substrate was cleaved ([1]; 100 IU/mL thrombin, no change in intensity between 3 min and 60 min) [min] | fluorescence ([1]; approx. 3 min, ambient overhead lighting and 365 nm flashlight, 100 IU/mL thrombin) | color change ([1]; approx. 3 min, ambient overhead lighting only, thrombin 100, 10 and 0 IU/mL) | fluorescence ([1]; approx. 60 min, 365 nm flashlight only, 100 IU/mL thrombin) | fluorescence signal, relative rank ([2]; 365 nm flashlight only) | fluorescence signal ([2]; ambient overhead lighting and 365 nm flashlight) | fluorescence on the surface underneath the cellulose matrix [3] | color change in plasma ([4]; 5 min after combining PNP, substrate and PT reagent, ambient overhead lighting only) | fluorescence signal in plasma ([4]; approx. 5 min, 365 nm flashlight only, 0.10 mL stock (Sigma 5 mg/mL in DMSO; HTI 0.25 mg/mL in TBS)) | fluorescence in plasma ([4]; approx. 5 min, ambient overhead lighting and 365 nm flashlight, 0.10 mL stock (Sigma 5 mg/mL in DMSO)) | time sample remained fluid before clotting [5] | fluorescence signal at bleeding site ([6]; 0.5 mL of 5 mg/mL in DMSO sprayed onto bleeding site, flashlight (356 nm) 2-3 min after application, no exogenous thrombin added) | detection of bleeding in a liver abrasion model ([6]; canine, sprayed onto bleeding site) | coloration on substrate coated side of cellulose matrix [7] | coloration of tube ([8]; 10 uL of 1000 IU/mL thrombin) | coloration of tube ([8]; 100 uL of 1000 IU/mL thrombin) | yellow coloration/hue of clotted plasma compared with the saline control [9] |
| --- | --- | --- | --- | --- | --- | --- | --- | --- | --- | --- | --- | --- | --- | --- | --- | --- | --- |
| Cc1cc(=O)oc2cc(NC(=O)[C@H](CCCN=C(N)N)NC(=O)[C@@H](NC(=O)[C@H](Cc3ccccc3)NC(=O)c3ccccc3)C(C)C)ccc12 [Sigma substrate] (Bz-Phe-Val-Arg-{AMC}) | ≤ 3 | displaying fluorescence | no color change observed | displaying fluorescence | +++ | strongest | spots of fluorescence could be seen | no color change was observed | strong fluorescence signal | strong fluorescence | approx. 3 min | could be detected | enabled detection of bleeding |  |  |  |  |
| Cl.Cl.NC(N)=NCCC[C@H](NC(=O)[C@@H]1CCCCN1C(=O)[C@H](N)Cc1ccccc1)C(=O)Nc1ccc([N+](=O)[O-])cc1 [S-2238, H-D-Phenylalanyl-L-pipecolyl-L-arginine-p-nitroaniline dihydrochloride] |  |  |  |  |  |  |  |  |  |  |  |  |  | yellow coloration (dark streaks) was evident; also recorded: change in coloration was evident | faint yellow coloration | yellow coloration | significantly stronger |
